Here are results for 23 compounds from patent publication US20220112187A1, “PYRAZOLOPYRIDINE AMINE COMPOUNDS FOR THE TREATMENT OF AUTOIMMUNE DISEASE” (Hoffmann-La Roche Inc., priority 2018, published 2022).

For this experiment, the target named is T1, human TLR7 (Homo sapiens, UniProt Q9NYK1).
T1 sequence (Q9NYK1 27-1049): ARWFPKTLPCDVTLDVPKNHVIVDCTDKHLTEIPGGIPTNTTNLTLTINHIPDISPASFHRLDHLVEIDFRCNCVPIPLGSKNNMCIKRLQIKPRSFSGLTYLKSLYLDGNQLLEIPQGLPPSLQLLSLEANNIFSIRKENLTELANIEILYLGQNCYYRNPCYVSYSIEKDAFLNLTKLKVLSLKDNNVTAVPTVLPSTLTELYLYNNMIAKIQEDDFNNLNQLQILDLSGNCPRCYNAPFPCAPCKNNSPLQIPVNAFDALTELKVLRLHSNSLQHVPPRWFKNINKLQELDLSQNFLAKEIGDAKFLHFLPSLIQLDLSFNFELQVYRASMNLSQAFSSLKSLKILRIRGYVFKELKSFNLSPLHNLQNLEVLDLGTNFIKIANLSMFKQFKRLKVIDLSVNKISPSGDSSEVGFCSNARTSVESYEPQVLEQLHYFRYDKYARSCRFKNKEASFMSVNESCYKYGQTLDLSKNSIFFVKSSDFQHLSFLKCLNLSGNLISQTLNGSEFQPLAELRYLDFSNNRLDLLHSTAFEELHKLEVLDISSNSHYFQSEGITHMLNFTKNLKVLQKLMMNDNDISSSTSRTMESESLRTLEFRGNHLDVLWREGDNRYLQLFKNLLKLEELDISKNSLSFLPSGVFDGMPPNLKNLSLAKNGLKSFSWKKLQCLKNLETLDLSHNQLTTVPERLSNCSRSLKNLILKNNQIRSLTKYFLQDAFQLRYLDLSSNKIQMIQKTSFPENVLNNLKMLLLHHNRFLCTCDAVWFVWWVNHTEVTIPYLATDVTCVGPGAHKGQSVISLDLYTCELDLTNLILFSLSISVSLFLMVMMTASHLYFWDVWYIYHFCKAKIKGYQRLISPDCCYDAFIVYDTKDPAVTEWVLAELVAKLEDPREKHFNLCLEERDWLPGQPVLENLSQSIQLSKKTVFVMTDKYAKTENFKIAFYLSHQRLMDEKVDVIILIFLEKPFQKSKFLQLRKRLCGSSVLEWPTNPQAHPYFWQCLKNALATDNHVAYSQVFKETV
In words: HEK293-Blue-hTLR-7 cells assay (SEAP reporter, R848 stimulation). As to conditions: HEK293-Blue-hTLR7 cells, R848 ligand, 20 hrs incubation. It counts as cell-based. The text has this: A stable HEK293-Blue-hTLR-7 cell line was purchased from InvivoGen (Cat. #: hkb-htlr7, San Diego, Calif., USA). These cells were originally designed for studying the stimulation of human TLR7 by monitoring the activation of NF-κB. A SEAP (secreted embryonic alkaline phosphatase) reporter gene was placed under the control of the IFN-β minimal promoter fused to five NF-κB and AP-1-binding sites. The SEAP was induced by activating NF-κB and AP-1 via stimulating HEK-Blue hTLR7 cells with TLR7 ligands. Therefore the reporter expression was declined by TLR7 antagonist under the stimulation of a ligand, such as R848 (Resiquimod), for incubation of 20 hrs. The cell culture supernatant SEAP reporter activity was determined using QUANTI-Blue™ kit (Cat. #: rep-qb1, Invivogen, San Diego, Ca, USA) at a wavelength of 640 nm, a detection medium that turns purple or blue in the presence of alkaline phosphatase.
HEK293-Blue-hTLR7 cells were incubated at a density of 250,000˜450,000 cells/mL in a volume of 170 μL in a 96-well plate in Dulbecco's Modified Eagle's medium (DMEM) containing 4.5 g/L glucose, 50 U/mL penicillin, […], […], 2 mM L-glutamine, 10% (v/v) heat-inactivated fetal bovine serum with addition of 20 μL test compound in a serial dilution in the presence of final DMSO at 1% and 10 μL of 20 uM R848 in above DMEM, perform incubation under 37° C. in a CO2 incubator for 20 hrs. Then 20 μL of the supernatant from each well was incubated with 180 μL Quanti-blue substrate solution at 37° C. for 2 hrs and the absorbance was read at 620˜655 nm using a spectrophotometer. The signalling pathway that TLR7 activation leads to downstream NF-κB activation has been widely accepted, and therefore similar reporter assay was modified for evaluating TLR7 antagonist.

As for `C[C@@H]1CN(c2ccc(C#N)n3nccc23)C[C@H](CN2CC3CCNCC3C2)O1` (stereo partly drawn) [Example 49, 4-[(2S,6R)-2-(1,3,3a,4,5,6,7,7a-octahydropyrrolo[3,4-c]pyridin-2-ylmethyl)-6-methyl-morpholin-4-yl]pyrazolo[1,5-a]pyridine-7-carbonitrile], half-maximal inhibition (IC50) required 180 nM. Consider `C[C@@H]1CN(c2ccc(C#N)n3nccc23)C[C@H](CN2CC3CCC2CN3)O1` (stereo partly drawn) [Example 30, 4-[(2S,6R)-2-(2,5-diazabicyclo[2.2.2]octan-2-ylmethyl)-6-methyl-morpholin-4-yl]pyrazolo[1,5-a]pyridine-7-carbonitrile], for which inhibition was half-maximal at 46 nM (IC50). For `C[C@@H]1CN(c2ccc(C#N)n3nccc23)C[C@H](CN2CCC3(CCCCN3)C2)O1` (stereo partly drawn) [Example 42, 4-[(2S,6R)-2-(2,6-diazaspiro[4.5]decan-2-ylmethyl)-6-methyl-morpholin-4-yl]pyrazolo[1,5-a]pyridine-7-carbonitrile], the IC50 (usually the midpoint of a concentration-inhibition curve) worked out at 98 nM. The value for `CC1CNCCN1C[C@H]1CN(c2ccc(C#N)n3nccc23)C[C@@H](C)O1` (single isomer, unassigned) [Example 50A] was 230 nM; that for `C[C@@H]1CN(c2ccc(C#N)n3nccc23)C[C@H](CN2CCCC3(CCCNC3)C2)O1` (stereo partly drawn) [Example 23, 4-[(2S,6R)-2-(2,8-diazaspiro[5.5]undecan-2-ylmethyl)-6-methyl-morpholin-4-yl]pyrazolo[1,5-a]pyridine-7-carbonitrile] was 180 nM.

For the compound `CC1CC(N)CCN1C[C@H]1CN(c2ccc(C#N)n3nccc23)C[C@@H](C)O1` (stereo partly drawn) [Example 51, 4-[(2S,6R)-2-[(4-amino-2-methyl-1-piperidyl)methyl]-6-methyl-morpholin-4-yl]pyrazolo[1,5-a]pyridine-7-carbonitrile], it took 390 nM to reach half-maximal inhibition (IC50). In turn, `C[C@@H]1CN(c2ccc(C#N)n3nccc23)C[C@H](CN2CC3(CCCNC3)C2)O1` [Example 10, 4-[(2S,6R)-2-(2,8-diazaspiro[3.5]nonan-2-ylmethyl)-6-methyl-morpholin-4-yl]pyrazolo[1,5-a]pyridine-7-carbonitrile] displayed an IC50 of 83 nM. The value for `C[C@@H]1CN(c2ccc(C#N)n3nccc23)C[C@H](CN2CCCC3NCCCC32)O1` (stereo partly drawn) [Example 64, 4-[(2S,6R)-2-(3,4,4a,5,6,7,8,8a-octahydro-2H-1,5-naphthyridin-1-ylmethyl)-6-methyl-morpholin-4-yl]pyrazolo[1,5-a]pyridine-7-carbonitrile] was 250 nM; that for `C[C@@H]1CN(c2ccc(C#N)n3nccc23)C[C@H](CN2CCC(N3CCNCC3)CC2)O1` [Example 39, 4-[(2R,6S)-2-methyl-6-[(4-piperazin-1-yl-1-piperidyl)methyl]morpholin-4-yl]pyrazolo[1,5-a]pyridine-7-carbonitrile] was 200 nM; that for `C[C@@H]1CN(c2ccc(C#N)n3nccc23)C[C@H](CN2CC(N)C(F)(F)C2)O1` (stereo partly drawn) [Example 35, 4-[(2S,6R)-2-[(4-amino-3,3-difluoro-pyrrolidin-1-yl)methyl]-6-methyl-morpholin-4-yl]pyrazolo[1,5-a]pyridine-7-carbonitrile] was 830 nM. For the compound `C[C@@H]1CN(c2ccc(C#N)n3nccc23)C[C@H](CN2CCC(N3CCCC3)CC2)O1` [Example 54, 4-[(2R,6S)-2-methyl-6-[(4-pyrrolidin-1-yl-1-piperidyl)methyl]morpholin-4-yl]pyrazolo[1,5-a]pyridine-7-carbonitrile], the IC50 was determined as 190 nM. In the case of `C[C@@H]1CN(c2ccc(C#N)n3nccc23)C[C@H](CN2CCC3(CCN3)CC2)O1` [Example 48, 4-[(2S,6R)-2-(1,7-diazaspiro[3.5]nonan-7-ylmethyl)-6-methyl-morpholin-4-yl]pyrazolo[1,5-a]pyridine-7-carbonitrile], half-maximal inhibition (IC50) required 300 nM.

Consider `CC1CN(C[C@H]2CN(c3ccc(C#N)n4nccc34)C[C@@H](C)O2)CCN1` (stereo partly drawn) [Example 28, 4-[(2R,6S)-2-methyl-6-[(3-methylpiperazin-1-yl)methyl]morpholin-4-yl]pyrazolo[1,5-a]pyridine-7-carbonitrile], for which the IC50 was 44 nM. On to `C[C@@H]1CN(c2ccc(C#N)n3nccc23)C[C@H](CN2CCC3(CCNCC3)C2)O1` [Example 18, 4-[(2S,6R)-2-(2,8-diazaspiro[4.5]decan-2-ylmethyl)-6-methyl-morpholin-4-yl]pyrazolo[1,5-a]pyridine-7-carbonitrile], for which the IC50 is 200 nM. On to `C[C@@H]1CN(c2ccc(C#N)n3nccc23)C[C@H](CN2CCC(N)CC2)O1` [Example 17, 4-[(2S,6R)-2-[(4-amino-1-piperidyl)methyl]-6-methyl-morpholin-4-yl]pyrazolo[1,5-a]pyridine-7-carbonitrile], for which half-maximal inhibition (IC50) was put at 89 nM.

Regarding `C[C@@H]1CN(c2ccc(C#N)n3nccc23)C[C@H](CN2C3CCC2CC(N)C3)O1` (stereo partly drawn) [Example 37, 4-[(2S,6R)-2-[(3-amino-8-azabicyclo[3.2.1]octan-8-yl)methyl]-6-methyl-morpholin-4-yl]pyrazolo[1,5-a]pyridine-7-carbonitrile], it took 190 nM to reach half-maximal inhibition (IC50). In turn, `C[C@@H]1CN(c2ccc(C#N)n3nccc23)C[C@H](CN2C3CCCC2CC(N)C3)O1` (stereo partly drawn) [Example 65, Endo-4-[(2S,6R)-2-[(3-amino-9-azabicyclo[3.3.1]nonan-9-yl)methyl]-6-methyl-morpholin-4-yl]pyrazolo[1,5-a]pyridine-7-carbonitrile] displayed an IC50 of 460 nM. `C[C@@H]1CN(c2ccc(C#N)n3nccc23)C[C@H](CN2CCN[C@H](c3ccccc3)C2)O1` [Example 38, 4-[(2R,6S)-2-methyl-6-[[(3R)-3-phenylpiperazin-1-yl]methyl]morpholin-4-yl]pyrazolo[1,5-a]pyridine-7-carbonitrile] had an IC50 of 120 nM. Consider `C[C@@H]1CN(c2ccc(C#N)n3nccc23)C[C@H](CN2CCOC3(CCNCC3)C2)O1` [Example 71, 4-[(2R,6S)-2-methyl-6-(1-oxa-4,9-diazaspiro[5.5]undecan-4-ylmethyl)morpholin-4-yl]pyrazolo[1,5-a]pyridine-7-carbonitrile], for which the IC50 came out at 450 nM. Regarding `C[C@@H]1CN(c2ccc(C#N)n3nccc23)C[C@H](CN2CC3CCC(C2)C3N)O1` (stereo partly drawn) [Example 36, 4-[(2S,6R)-2-[(8-amino-3-azabicyclo[3.2.1]octan-3-yl)methyl]-6-methyl-morpholin-4-yl]pyrazolo[1,5-a]pyridine-7-carbonitrile], inhibition was half-maximal at 38 nM (IC50). `C[C@@H]1CN(c2ccc(C#N)n3nccc23)C[C@H](CN2CCC3(CN(C)CCO3)C2)O1` (stereo partly drawn) [Example 76, 4-[(2R,6S)-2-methyl-6-[(9-methyl-6-oxa-2,9-diazaspiro[4.5]decan-2-yl)methyl]morpholin-4-yl]pyrazolo[1,5-a]pyridine-7-carbonitrile] had an IC50 of 920 nM. On to `C[C@@H]1CN(c2ccc(C#N)n3nccc23)C[C@H](CN2CCC(N3CCCCCC3)CC2)O1` [Example 4, 4-[(2S,6R)-2-[[4-(azepan-1-yl)-1-piperidyl]methyl]-6-methyl-morpholin-4-yl]pyrazolo[1,5-a]pyridine-7-carbonitrile], for which inhibition was half-maximal at 180 nM (IC50). Under `C[C@@H]1CN(c2ccc(C#N)n3nccc23)C[C@H](CN2CC3(CCNCC3)C2)O1` [Example 24, 4-[(2S,6R)-2-(2,7-diazaspiro[3.5]nonan-2-ylmethyl)-6-methyl-morpholin-4-yl]pyrazolo[1,5-a]pyridine-7-carbonitrile] stands 100 nM.
